In patent US6352715B1, “Transdermal rate-controlled delivery of Huperzine A for treatment of alzheimer's disease” (priority 1998, dated 2002):

How the values were obtained:
[1] = In vitro permeation of Hup A through human cadaver skin from donor solutions (Valia-Chien permeation cell); type: in vitro ADME; conditions: for Permeation arate: receptor pH 7.4; for Permeability × 10^3: values × 10^3
Method: Human cadaver skin is employed as model for studying in vitro transdermal permeation of Hup A. The skin specimens of human cadavers, obtained from Ohio Valley Skin & Tissue Center, are mounted between the two half cells of Valia-Chien Permeation Cell. Donor solutions were prepared in isotonic phosphate buffers of pH 5, 6, 7, 7.4, 8 and 9. Concentration of each solution was about 750 ug/ml. Permeation studies were carried out in triplicate at each pH evaluated. The receptor solution used in each case was isotonic phosphate buffer pH 7.4 to simulate physiological conditions.
As stated above human cadaver skin was used in the permeation studies. The skin, obtained frozen, was first thawed and rinsed with in normal saline. The skin was then blotted to remove excess moisture and cut into 2 cm×2 cm pieces. Each skin piece was sandwiched between two microscope glass slides and the thickness was measured using a micrometer. These skin pieces were then mounted between the two half-cell of Valia-Chien permeation cells, with the stratum corneum facing the donor half-cell. The respective donor and receptor solutions were added (3.3 ml each). Samples of 100 ul each were taken from the receptor compartment at various intervals up to 48 hours and were analyzed by HPLC. The volume of receptor compartment was replaced with fresh isotonic phosphate buffer after each sample. At end of 48 hours, a single aliquot was taken from the donor compartment and analyzed after suitable dilution to evaluate the amount of Hup A lost from the donor in 48 hours.
The rate of Hup A permeation is determined based on the general formula for the determination of the rate of permeation of a drug across a membrane as illustrated by the following equation (1): [formula]
Sink conditions were maintained throughout the permeation study i.e. Cd>>Cr. Permeability can be calculated using solubility of Hup A as the saturation concentration in donor cell (Cd). [formula]
Intrinsic permeability was calculated by correlating the permeability with the thickness of the skin:
Wherein P=intrinsic permeability and h=thickness in cm.
Generally speaking, higher the partitioning of the drug into the skin, higher the permeation will be. The pH-dependent partitioning behavior of Hup A is seen to be reflected in its skin permeation profiles. The intrinsic permeability-pH profiles of Hup A (FIG. 5) is similar to that observed for partition coefficient-pH relationship (FIG. 3). Again, a sigmoidal relationship is observed. Further, the amount lost from the donor solution, which corresponds to the sum of the amount permeated and the amount retained in the skin, was also seen to follow similar relationship (FIG. 6).

patients = conditions: orally 0.2 mg (4 tablets, b.i.d) for 8 weeks; cited from earlier work
[2] = pH/solubility profile in buffers; type: physicochemical; conditions: 37° C., 24 hours
Method: In order to conserve the drug quantity being used, single point solubility determinations were carried out. Six different buffers were prepared in to determine the solubility of Hup A. The pH range chosen to study solubility is in 2 units above and 2 units below the pKa of the drug, i.e., 5 to 9. In addition, pH 7.4 was also selected to determine solubility at the physiological pH. To determine solubility, weighed amounts of Hup A were added to six different glass vials. In each vial, 1 ml of the respective buffer was added. The vials were tightly closed and kept in a shaking water bath maintained at 37° C. for 24 hours. At the end of such period, the supernatant solution was filtered through 0.22 um nylon filters into pre-warmed tubes. An aliquot of the filtrate was further diluted and analyzed by HPLC.
It can be seen that at pH 2 units above the pKa, i.e., at pH 9, the solubility of Hup A is the lowest. At low pH, i.e., at pH 5, the solubility of Hup A is seen to be high. This is expected as at pH 5, the drug predominantly exists as an ionized moiety with a single positive charge. These charged ions are hydrophilic and can be easily solubilized by water. At pH 9, the drug predominantly exists as an neutral moiety which is lipophilic, thus the solubility is low. The log of solubility as a function of solution pH is explained by the Henderson-Hasselback equation: […]

[3] = test system: rat embryo hippocampus and cerebellum cultured cells; conditions: cited from earlier work
[4] = single oral dose of 0.99 mg, six volunteers; cited from earlier work
rat cortex = conditions: cited from earlier work
[5] = Determination of pKa of Hup A by pH titration; type: physicochemical; conditions: 5×10^−4 M in water titrated with HCl
Method: A solution of the Hup A was prepared in water to obtain a concentration of 5×10^−4 M solution. Hydrochloric acid solution 0.005M was prepared by dilution of concentrated acid. Similarly, a NaOH solution was prepared by diluting commercially available 1N solution.
For all titration, the procedure used was similar and is described below. The solution to be titrated was taken in a breaker and continually mixed using a magnetic stir bar. A pH electrode was used to measure pH of the solution during the experiments. The pH meter was connected to a computer, which was programmed to automatically obtain pH readings every 10 seconds. […]
First, the HCL solution was standardized by titrating it with standard NaOH solution. This was carried out three times an d end point was determined from the inflection point using the titration profile. […]
The pH titration curve consists of […]: initial gradual decrease in pH as the base is slowly neutralized by the acid; middle region showing slow decrease in pH as excess acid is added to the solution. The pKa of the base is calculated from the initial region. The pH corresponding to midpoint of the initial part of the curve is the approximate pKa of the Hup A. Further, the exact pKa of Hup A was calculated by method described by Albert and Sergeant (1971), which is incorporated herein by reference. […]

[6] = Partitioning of Hup A into n-octanol from buffers of different pH; type: physicochemical; conditions: 48 hrs
Method: The buffers used to prepare solutions of Hup A for the partitioning study were the same as those used in the solubility studies, i.e., isotonic phosphate buffers with pH 5, 6, 7, 7.4, 8 and 9. Initially, 100 ml of n-octanol was mixed with 100 ml of phosphate buffers and placed in shaking water bath at 37° C. for 24 hours to saturate the n-octanol with buffer prior to study. Then the n-octanol was separated from the buffer using a separating funnel.
Solutions of Hup A (about 150 ug/ml concentration) were prepared separately in each of the six buffers. Then 1 ml each of each buffers was pipetted to three test tube. To these test tubes, 1 ml of the n-octanol was added. Controls were set up consisting only of buffer solutions without n-octanol to account for changes in concentration due to evaporation of buffer or degradation of drug if present. The tubes were sealed and placed in a shaking water bath at 37° C. for 48 hrs. Samples of 100 ul each were taken from both the n-octanol layer and the buffer layer and analyzed by HPLC. Partition coefficients were determined from the ratio of concentration of Hup A in n-octanol to that in buffer.
It appears that at high pH, when Hup A exists predominantly as a neutral moiety, the partition coefficient is high. As the pH is reduced the fraction of the unionized moiety decreases and so does the partition coefficient. At pH 5, when Hup A exists predominantly as a ionized moiety the partition coefficient is below 1, indicating high affinity of the drug for the buffer phase.

C/C=C1\[C@H]2C=C(C)C[C@]1(N)c1ccc(=O)[nH]c1C2 [Hup A, Huperzine A]
Permeation arate ([1]; donor pH 5, about 750 ug/ml): 0.776 (0.029) ug/cm^2/hr
Permeability × 10^3 ([1]; donor pH 5): 1.026 (0.038) cm/hr
Permeation arate ([1]; donor pH 6, about 750 ug/ml): 0.213 (0.088) ug/cm^2/hr
Permeability × 10^3 ([1]; donor pH 6): 0.290 (0.119) cm/hr
Permeation arate ([1]; donor pH 7, about 750 ug/ml): 0.633 (0.225) ug/cm^2/hr
Permeability × 10^3 ([1]; donor pH 7): 0.846 (0.300) cm/hr
Permeation arate ([1]; donor pH 7.4, about 750 ug/ml): 0.759 (0.368) ug/cm^2/hr
Permeability × 10^3 ([1]; donor pH 7.4): 1.007 (0.489) cm/hr
Permeability × 10^3 ([1]; donor pH 8): 4.434 (1.7050) cm/hr
Permeation arate ([1]; donor pH 9, about 750 ug/ml): 5.082 (2.162) ug/cm^2/hr
Permeability × 10^3 ([1]; donor pH 9): 6.118 (2.603) cm/hr
patients with significant improvement in memory, cognition and behavior (patients): 58%
side effects (patients): without causing any severe side effects
Solubility ([2]; pH 5 buffer): 6.225 (0.153) mg/ml
Solubility ([2]; pH 6 buffer): 4.639 (0.001) mg/ml
Solubility ([2]; pH 7 buffer): 2.123 (0.042) mg/ml
Solubility ([2]; pH 7.4 buffer): 1.325 (0.042) mg/ml
Solubility ([2]; pH 8 buffer): 1.201 (0.017) mg/ml
Solubility ([2]; pH 9 buffer): 1.044 (0.018) mg/ml
death of neuronal cell caused by toxic levels of glutamate [3]: decreases the death of neuronal cell
pharmaco-kinetics evaluation [4]: absorbed rapidly, distributed widely in the body, and eliminated at a moderate rate
permeation through the blood-brain barrier (rat cortex; rat, in vivo): able to permeate through the blood-brain barrier
Ach, norepinephrine and dopamine in rat cortex (rat cortex; systemic or local administration): dose-dependent increase
pKa [5]: 6.97 (+/−0.06)
Partition Coefficient ([6]; n-octanol/buffer pH 6, 37° C.): 1.681 (0.010)
Partition Coefficient ([6]; n-octanol/buffer pH 7, 37° C.): 11.376 (0.415)
Partition Coefficient ([6]; n-octanol/buffer pH 7.4, 37° C.): 18.359 (0.294)
Partition Coefficient ([6]; n-octanol/buffer pH 8, 37° C.): 24.063 (0.515)
Partition Coefficient ([6]; n-octanol/buffer pH 9, 37° C.): 27.463 (0.131)
